Measurements reported in ChEMBL document CHEMBL4483862, “Open-source discovery of chemical leads for next-generation chemoprotective antimalarials” (2018).

Tested on: Plasmodium berghei
Experiment: Luciferase/luciferin-expressing antifolate-resistant parasites were used to infect a culture of HepG2 cells that were pre-incubated with compounds. Infected hepatocytes emit light due to the luciferase reaction. Assay results are presented as the percent inhibition of light emission compared to control. […]
Type: functional
Conditions: sporozoite; for IC50: read-out: LUCIFERASE INFECTION ASSAY - IC50; for IC90: read-out: LUCIFERASE INFECTION ASSAY - IC90

CCC(=O)c1ccc(OCCCCn2cnc3ccccc32)cc1
IC50: > 10 µM | IC90: > 10 µM

COc1cc(NC(=O)Cc2c(F)cccc2Cl)cc(OC)c1OC
IC50: > 10 µM | IC90: > 10 µM

Cc1cc(O)c(CN2CCN(C(=O)C34CC5CC(CC(C5)C3)C4)CC2)cc1C
IC50: > 10 µM | IC90: > 10 µM

CC(c1ccccc1)N(C)C(=O)c1nn(-c2ccccc2)c2c1CCC2 (configuration not stated)
IC50: > 10 µM | IC90: > 10 µM

CCc1nnc(NC(=O)CCSCc2cn3ccccc3n2)s1
IC50: > 10 µM | IC90: > 10 µM

Cc1oc(=S)n(CN2CCN(S(=O)(=O)c3ccc4ccccc4c3)CC2)c1C
IC50: > 10 µM | IC90: > 10 µM

Cc1ccc(Nc2nc(C(F)(F)F)nc3ccccc23)cc1S(=O)(=O)N(C)C
IC50: > 10 µM | IC90: > 10 µM

CCOc1cc2c(cc1/C=C/C(=O)c1ccc3[nH]c(=O)[nH]c3c1)OC(C)C2 (configuration not stated)
IC50: > 10 µM | IC90: > 10 µM

O=C1CN(C(=O)CNC(c2ccccc2)c2cccs2)c2ccccc2N1 (configuration not stated)
IC50: > 10 µM | IC90: > 10 µM

O=C(c1ccccc1)c1ccc(OCc2coc(-c3ccccc3)n2)cc1
IC50: > 10 µM | IC90: > 10 µM

N#Cc1ccnc(N2CCN(c3nc(CSc4ccccc4)nc4sc5c(c34)CCC5)CC2)c1
IC50: > 10 µM | IC90: > 10 µM

CSCc1nc(=O)c2c(C)c(C(=O)NN3C(=O)NC(C)(c4ccccc4)C3=O)sc2[nH]1 (configuration not stated)
IC50: > 10 µM | IC90: > 10 µM

CN(C)CCOCCOc1c(Cl)cc(Cl)cc1Cl
IC50: > 10 µM | IC90: > 10 µM

Cc1nn(-c2ccccc2)c(C)c1C(=O)C(=O)NC(C)c1ccc(S(N)(=O)=O)cc1 (configuration not stated)
IC50: > 10 µM | IC90: > 10 µM

CC(Sc1nncs1)C(=O)Nc1cc([N+](=O)[O-])ccc1Cl (configuration not stated)
IC50: > 10 µM | IC90: > 10 µM

CCOc1ncccc1C(=O)N(C)Cc1cn(-c2ccccc2)nc1-c1ccccc1
IC50: 4.36 µM | IC90: 5.34 µM

CC1(c2ccco2)NC(=O)N(NC(=O)c2ccc3ccccc3n2)C1=O (configuration not stated)
IC50: > 10 µM | IC90: > 10 µM

O=C(CCSc1n[nH]c(=O)n1C1CC1)Nc1ccccc1
IC50: > 10 µM | IC90: > 10 µM

CCOC(=O)C1SC(C(C#N)c2ccccn2)=NC1(c1ccc(C)cc1)C(F)(F)F (configuration not stated)
IC50: > 10 µM | IC90: > 10 µM

CCCOc1c(Cl)cc(C(=O)N2CCN(C)c3nc4ccccc4nc32)cc1OCC
IC50: > 10 µM | IC90: > 10 µM

CC(C)Cn1c(N)c(C(=O)CSc2nnc(COc3ccccc3Cl)o2)c(=O)n(C)c1=O
IC50: 3.28 µM | IC90: 3.85 µM

O=C(Nc1ccc(-c2csc(N3CCOCC3)n2)cc1)c1ccc(Br)c([N+](=O)[O-])c1
IC50: > 10 µM | IC90: > 10 µM

CN(CC(=O)Nc1ccc(Cl)c(S(=O)(=O)N2CCOCC2)c1)C(=O)C1CCCO1 (configuration not stated)
IC50: > 10 µM | IC90: > 10 µM

CC(CNC(=O)C1CCN(S(=O)(=O)c2cccs2)CC1)c1nc2ccccc2n1C(F)F (configuration not stated)
IC50: > 10 µM | IC90: > 10 µM

CCOc1cc(CN(CC)CC(=O)Nc2c(F)cccc2F)ccc1OCc1cccs1
IC50: > 10 µM | IC90: > 10 µM

CC(CO)NCCOCCOc1ccc(Cl)cc1Cc1ccccc1 (configuration not stated)
IC50: > 10 µM | IC90: > 10 µM

Cc1nc(-c2ccc(CNC(=O)COc3ccccc3-c3ccccc3)o2)cs1
IC50: > 10 µM | IC90: > 10 µM

Cc1sc2ncnc(SCC(=O)NC3CCN(Cc4ccccc4)C3)c2c1C (configuration not stated)
IC50: > 10 µM | IC90: > 10 µM

Cc1nn(C)c2nc(C3CC3)cc(C(=O)Nc3ccccc3C(=O)NC(C)c3ccccc3)c12 (configuration not stated)
IC50: 8.82 µM | IC90: > 10 µM

Cc1ccccc1C(C)NC(=O)c1c[nH]c(=S)n1-c1ccccc1 (configuration not stated)
IC50: > 10 µM | IC90: > 10 µM

Cc1ccc2nc(CNc3cc(Cl)ccc3N3CCCC3)cc(=O)n2c1
IC50: > 10 µM | IC90: > 10 µM

CCOC(=O)c1sc2nc(C)nc(N3CC=C(c4c[nH]c5ncccc45)CC3)c2c1C
IC50: > 10 µM | IC90: > 10 µM

O=C(c1ccc(N2CCCC2=O)cc1)N1CCN(C2CCS(=O)(=O)C2)CC1 (configuration not stated)
IC50: > 10 µM | IC90: > 10 µM

Cc1ccc(CN(CCc2ccccc2)Cn2nc(CCC(N)=O)n(C3CC3)c2=S)s1
IC50: > 10 µM | IC90: > 10 µM

CCOc1cc2c(cc1CN(Cc1nc(=O)c3cc(-c4ccccc4)sc3[nH]1)Cc1nc(=O)c3cc(-c4ccccc4)sc3[nH]1)OC(C)C2 (configuration not stated)
IC50: > 10 µM | IC90: > 10 µM

COC(=O)Cc1cc(=O)nc(SCC(=O)c2cc(C)n(-c3ccc(C(C)C)cc3)c2C)[nH]1
IC50: > 10 µM | IC90: > 10 µM

CCN(CC(=O)NC(C)(C)C)C(=O)c1cc(OC)c(Br)c(OC)c1
IC50: > 10 µM | IC90: > 10 µM

CCOC(=O)c1sc2cccc(F)c2c1CSc1nc2sccc2c(=O)n1C
IC50: 4.11 µM | IC90: 9.27 µM

CC(C)=CC(=O)NC(c1ccccc1)c1ccc(Cl)cc1 (configuration not stated)
IC50: > 10 µM | IC90: > 10 µM

O=C(Nc1ccc2c(c1)OCO2)C1CCN(Cn2nc3n(c2=O)CCCCC3)CC1
IC50: > 10 µM | IC90: > 10 µM

COc1ccc(NC(=O)C(C)N2CCN(CCc3ccccc3)CC2)cc1Cl (configuration not stated)
IC50: > 10 µM | IC90: > 10 µM

Cc1cc(-c2csc(Cc3ccccc3)n2)c(C)n1NC(=O)c1nn(C)c(=O)c2ccccc12
IC50: > 10 µM | IC90: > 10 µM

CN(c1ccccc1)S(=O)(=O)c1cccc(C(=O)Nc2ccc(-c3cn4c(n3)CCC4)cc2)c1
IC50: > 10 µM | IC90: > 10 µM

Cc1nc(COc2ccc(F)cc2)sc1C(=O)Nc1nc2c(s1)CC(C)CC2 (configuration not stated)
IC50: > 10 µM | IC90: > 10 µM

CCN(CC)C(=O)CN1CCN(C(=O)c2ccc(S(=O)(=O)N3CCOCC3)cc2)CC1
IC50: > 10 µM | IC90: > 10 µM

C1CCN(Cc2nc(NC3CCN(C4CC4)CC3)c3c4c(sc3n2)CCCC4)CC1
IC50: > 10 µM | IC90: > 10 µM

Cc1cccc(N2CCN(C(=O)/C=C/c3cnn(-c4ccccc4)c3)CC2)c1
IC50: > 10 µM | IC90: > 10 µM

CC1CCN(CCCCOc2cccc(Cl)c2)CC1
IC50: > 10 µM | IC90: > 10 µM

N#Cc1cccc(NC(=O)c2cc(-c3cccnc3)nc3c2cnn3Cc2ccccc2Cl)c1
IC50: > 10 µM | IC90: > 10 µM

COC(=O)c1ccc2c(=O)n(-c3ccccc3)c(SC3CCCCC3=O)nc2c1 (configuration not stated)
IC50: > 10 µM | IC90: > 10 µM

CN(Cc1ccccc1N1CCCCC1)C(=O)c1ccc(NC(=O)C2CC2)cc1
IC50: 2.9 µM | IC90: 3.37 µM

Cc1oc(-n2cccc2)c(C#N)c1C(=O)Nc1nc(-c2ccccn2)cs1
IC50: 9.43 µM | IC90: > 10 µM

Cc1ccc(NS(=O)(=O)c2ccc(C(=O)NNC(=O)COc3ccc(C#N)cc3)cc2)cc1
IC50: > 10 µM | IC90: > 10 µM

CC(C)(C)OC(=O)NCc1ccc(C(=O)NNC(=O)c2ccccc2O)cc1
IC50: > 10 µM | IC90: > 10 µM

CC(=O)c1sc(-c2ccc(OCC(=O)Nc3ccc(S(=O)(=O)N4CCCC4)cc3)cc2)nc1C
IC50: > 10 µM | IC90: > 10 µM

CCN(CC(=O)Nc1ccc2c(c1)OCCO2)C(=O)CCCc1nc2ccccc2s1
IC50: > 10 µM | IC90: > 10 µM

COc1ccc(C(C)(C)C)cc1NC(=O)c1sc2nc3n(c(=O)c2c1C)CCC3
IC50: > 10 µM | IC90: > 10 µM

CC(Oc1ccccc1[N+](=O)[O-])C(=O)N(c1nccs1)C1CCCCC1 (configuration not stated)
IC50: > 10 µM | IC90: > 10 µM

CCNC(=O)Cn1c(=O)/c(=C\c2ccccc2Cl)s/c1=C\C(=O)c1ccccc1C
IC50: > 10 µM | IC90: > 10 µM

O=C(c1ccco1)N1CCC(Nc2nc(-c3cccs3)nc3sc4c(c23)CCCC4)CC1
IC50: > 10 µM | IC90: > 10 µM

C/C=C/c1ccc(OCC(=O)NCc2ccc(S(N)(=O)=O)cc2)c(OC)c1
IC50: > 10 µM | IC90: > 10 µM

COc1ccc(C(C)NC(=O)CCCN2C(=O)c3ccccc3C2=O)cc1F (configuration not stated)
IC50: > 10 µM | IC90: > 10 µM

Cc1ccc(-c2c(C)sc3[nH]c(CN(Cc4nc(=O)c5c(-c6ccc(C)cc6)c(C)sc5[nH]4)Cc4ccccc4CN4CCCC4)nc(=O)c23)cc1
IC50: > 10 µM | IC90: > 10 µM

COc1cc(C(=O)N(C)Cc2ccccc2N2CCOCC2)cc(OC)c1OC
IC50: > 10 µM | IC90: > 10 µM

CCOC(=O)/C(=C\c1ccc(Cl)c([N+](=O)[O-])c1)C1=Nn2c(nnc2-c2cccs2)SC1
IC50: > 10 µM | IC90: > 10 µM

Cc1nn(C)c(Cl)c1C=C(C(=O)NCCc1ccccc1)C(=O)NCCc1ccccc1
IC50: > 10 µM | IC90: > 10 µM

N#CC1=C2C=CC=CN2C(c2ccccc2)(C(F)(F)F)N=C1SCC(=O)Nc1ccc(Cl)c(Cl)c1 (configuration not stated)
IC50: > 10 µM | IC90: > 10 µM

O=C(CN1CCC(n2c(=O)[nH]c3ccccc32)CC1)NCCC1=CCCCC1
IC50: > 10 µM | IC90: > 10 µM

O=C(Nc1ccc(-c2nccs2)cc1)c1occc1COc1ccccc1
IC50: > 10 µM | IC90: > 10 µM

O=C(Nc1nc2c(s1)CCCC2)c1c[nH]c(=S)n1-c1ccccc1
IC50: > 10 µM | IC90: > 10 µM

Cc1c(C(=O)Nc2cccc(S(=O)(=O)N(C)C)c2)cnn1-c1ccc(=O)[nH]n1
IC50: > 10 µM | IC90: > 10 µM

Cc1[nH]c(=O)[nH]c(=O)c1C(=O)/C=C/c1cn(-c2ccccc2)nc1-c1cc2ccccc2o1
IC50: > 10 µM | IC90: > 10 µM

Cc1ccc(-c2nnc(SCC(=O)Nc3ccccc3C(=O)NCc3ccccc3)[nH]2)cc1
IC50: > 10 µM | IC90: > 10 µM

COc1cc(OC)cc(C(=O)NNC(=O)CCC(=O)c2ccc(Cl)s2)c1
IC50: > 10 µM | IC90: > 10 µM

NS(=O)(=O)c1ccc(N2CCOCC2)c(C(=O)NCCOc2ccc3ccccc3c2)c1
IC50: > 10 µM | IC90: > 10 µM

CC(=O)N(c1nc(/C=C/C(=O)c2ccc(F)c(F)c2)cs1)c1c(C)cccc1C
IC50: > 10 µM | IC90: > 10 µM

Cc1ccc(/C=C(\C#N)c2nc(=O)c3c4c(sc3[nH]2)CC(C)CC4)o1 (configuration not stated)
IC50: > 10 µM | IC90: > 10 µM

O=C(Nc1ccc2c(c1)nc1n2CCCCC1)C1CC=CCC1 (configuration not stated)
IC50: > 10 µM | IC90: > 10 µM

CNC(=O)c1cccc(NC(=O)c2cc(-c3ccco3)nc3c2cnn3C(C)C)c1
IC50: > 10 µM | IC90: > 10 µM

Cc1nn(-c2ccccc2)c(Oc2ccc(Br)cc2)c1CNC1CCC(O)CC1 (configuration not stated)
IC50: > 10 µM | IC90: > 10 µM

O=C(NCCN1C(=O)S/C(=C\c2ccccc2Cl)C1=O)c1ccc(Br)o1
IC50: > 10 µM | IC90: > 10 µM
